Where a name gives a salt, the structure may show the parent alone. Square brackets hold non-standard residues; d marks the D form. Peptide text beside a SMILES is read from it. pGlu = O=C1CC[C@@H](C(=O)O)N1
Experiments:
[1] = test system: Emperor dragonfly, Anax imperator; conditions: low concentrations of the synthetic peptide injected into the Emperor dragonfly; cited from earlier work
Long Evans rats = experiment: Active Allothetic Place Avoidance test (AAPA), MK-801 model; format: in vivo; conditions: for MK-801 (0.15 mg/kg) induced cognitive memory impairment effects: peptide 2 mg/kg administered subchronically + MK-801 0.15 mg/kg, summary statement; for reversal of MK-801 increased locomotion (total distance (m) moved) / reversal of MK-801 decreased maximum time of avoidance (s) / reversal of MK-801 increased number of entries to the shock sector / reversal of MK-801 increased number of shocks: peptide 2 mg/kg i.p. + MK-801 0.15 mg/kg i.p., compared to MK-801 alone; for reversal of MK-801 increased locomotion (total distance (m) moved): 4 days (subchronically)
Experimental: 3-4 month-old male rats of the Long Evans strain were used for the Active Allothetic Place Avoidance test and were obtained from the accredited breeding colony of the Institute of Physiology, Academy of Science, Prague. Rats were acclimatised for 7-10 days prior to testing, during which they were weighed twice and handled four times. Rats were housed in pairs in transparent plastic cages (30×30×40 cm) in an air-conditioned animal room with a constant temperature of 21 °C and with 12/12 light/dark cycle (lights on at 7:00). All animals received food and water ad libitum. All experiments respected the Guidelines of the European Union (86/609/EU) and the National Committee for the Care and Use of Laboratory Animals (Czech Republic) and were approved by the committee under the number: MEYSCR-27527/2012-31.
In the Active Allothetic Place Avoidance test, Long Evans rats were treated with Ani-AKH (1 and 2 mg/kg) (n=8), Lia-AKH (1 and 2 mg/kg) (n=8), Pht-HrTH (1 and 2 mg/kg) (n=8), MK-801 (0.15 mg/kg) (n=8), Ani-AKH (2 mg/kg)+MK-801 (0.15 mg/kg) (n=8), Lia-AKH (2 mg/kg)+MK-801 (0.15 mg/kg) (n=8), Pht-HrTH (2 mg/kg)+MK-801 (0.15 mg/kg) (n=8) or vehicle (control group=saline with 15% DMSO) (n= 8) for 4 days (subchronically). Ani-AKH, Lia-AKH and Pht-HrTH were administered intraperitoneally (i.p.) 60 min. before the Active Allothetic Place Avoidance test while MK-801 was administered (i.p.) 40 min. before the test in a volume of 2ml/kg body weight. Separate group of animals were used in each test. The doses of the drugs were chosen according to the previous studies (Mutlu et al. 2016).
(+)-MK-801 maleate ((5S,10R)-(+)-5-methyl-10,11-dihydro-5H-dibenzo(a, d)-cyclo-hepten-5,10-imine maleate) was obtained from Tocris Bioscience, United Kingdom. Anax imperator AKH (Ani-AKH), Libellula auripennis AKH (Lia-AKH) and Phormia-Terra hypertrehalosemic hormone (Pht-HrTH) were purchased from TRC (Toronto/Canada). MK-801 was dissolved in saline while AKH was dissolved in saline mixed with 15% DMSO. Saline with 15% DMSO was used as control group.
The Active Allothetic Place Avoidance Test is a spatial memory test that can determine the ability of animals to organize their behavior efficiently in both normal and pathological conditions. Successful performance in the test requires the rat to solve a conflict between two discordant subsets of spatial stimuli (extramaze and intramaze cues). It is believed that successful performance in the Active Allothetic Place Avoidance Test, where the rat has to differentiate between relevant and irrelevant stimuli, depends on the mode of information processing disturbed in schizophrenic patients (Bubenikova-Valesova et al., 2008b). The Active Allothetic Place Avoidance arena was described in detail in previous papers (Cimadevilla et al., 2001). Briefly, it consisted of a smooth metallic circular arena (82 cm in diameter), enclosed by a 30 cm high transparent Plexiglas wall. The arena was elevated 1 m above the floor of 4×5 m experimental room containing an abundance of extramaze landmarks. The arena together with the wall was rotated (1 rpm) by an electric motor placed underneath the arena disc. At the beginning of each training session, a rat was placed in the arena at a location opposite an imperceptible 60° to-be- avoided sector (shock sector), which was defined by the computer- based tracking system (iTrack, Biosignal Group, USA), located in an adjacent room. The arena rotation started immediately after placement of the rat. The location of the shock sector could be determined solely by its spatial relation to the distal orienting cues located in the room. Rats were wearing a light latex harness, to which an infrared light-emitting diode (LED) was attached between the rat's shoulders. Whenever the rat entered the to-be-avoided sector for more than 500 ms (millisecond), the tracking system delivered a mild, constant-current shock (50 Hz, 0.5 s, 0.4-0.7 mA) and counted an entrance. […]

[2] = MK-801 0.15 mg/kg i.p. alone, 4 days, compared to control

Row | Compound | haemolymph lipid concentration [1] | MK-801 (0.15 mg/kg) induced cognitive memory impairment effects (Long Evans rats) | reversal of MK-801 increased locomotion (total distance (m) moved) (Long Evans rats) | reversal of MK-801 decreased maximum time of avoidance (s) (Long Evans rats; 4 days) | reversal of MK-801 increased number of entries to the shock sector (Long Evans rats; 4 days) | reversal of MK-801 increased number of shocks (Long Evans rats; 4 days) | locomotion (total distance (m) moved) (Long Evans rats; [2]) | maximum time of avoidance (s) (Long Evans rats; [2]) | number of entries to the shock sector (Long Evans rats; [2]) | number of shocks (Long Evans rats; [2])
1 | CC(C)[C@H](NC(=O)[C@@H]1CCC(=O)N1)C(=O)N[C@@H](CC(N)=O)C(=O)N[C@@H](Cc1ccccc1)C(=O)N[C@@H](CO)C(=O)N1CCC[C@H]1C(=O)N[C@@H](CO)C(=O)N[C@@H](Cc1c[nH]c2ccccc12)C(N)=O [Ani-AKH, 5-oxo-L-prolyl-L-valyl-L-asparaginyl-L-phenylalanyl-L-seryl-L-prolyl-L-seryl-L-Tryptophanamide] ([pGlu]VNFSPSW-NH2) | increased the haemolymph lipid concentration | reverse | significantly reversed | significantly reversed this effect | significantly reversed this effect | significantly reversed this effect |  |  |  | 
2 | CC(C)[C@H](NC(=O)[C@@H]1CCC(=O)N1)C(=O)N[C@@H](CC(N)=O)C(=O)N[C@@H](Cc1ccccc1)C(=O)N[C@H](C(=O)N1CCC[C@H]1C(=O)N[C@@H](CO)C(=O)N[C@@H](Cc1c[nH]c2ccccc12)C(N)=O)[C@@H](C)O [Lia-AKH, 5-oxo-L-prolyl-L-valyl-L-asparaginyl-L-phenylalanyl-L-threonyl-L-prolyl-L-seryl-L-Tryptophanamide] ([pGlu]VNFTPSW-NH2) |  | reverse | partial effect | significantly reversed this effect | significantly reversed this effect | significantly reversed this effect |  |  |  | 
3 | C[C@]12N[C@H](Cc3ccccc31)c1ccccc12 [MK-801, (5S,10R)-(+)-5-methyl-10,11-dihydro-5H-dibenzo(a, d)-cyclo-hepten-5,10-imine maleate] |  |  |  |  |  |  | significantly increased locomotion | significantly decreased maximum time of avoidance | significantly increased number of entries | significantly increased number of shocks
4 | CC(C)C[C@H](NC(=O)[C@@H]1CCC(=O)N1)C(=O)N[C@H](C(=O)N[C@@H](Cc1ccccc1)C(=O)N[C@@H](CO)C(=O)N1CCC[C@H]1C(=O)N[C@@H](CC(=O)O)C(=O)N[C@@H](Cc1c[nH]c2ccccc12)C(N)=O)[C@@H](C)O [Pht-HrTH, 5-oxo-L-prolyl-L-leucyl-L-threonyl-L-phenylalanyl-L-seryl-L-prolyl-L-alfa-aspartyl-L-Tryptophanamide] ([pGlu]LTFSPDW-NH2) |  | reverse | no reversing effect | significantly reversed this effect | significantly reversed this effect | significantly reversed this effect |  |  |  | 

Source: patent EP3446753B1, “NEW THERAPEUTIC USES OF PEPTIDES OF THE ADIPOKINETIC HORMONE FAMILY” (Mutlu, Oguz, priority 2017, dated 2019)
